According to patent US5625032A, “Selective amylin antagonist peptides and uses therefor” (Amylin Pharmaceuticals, Inc., priority 1993, dated 1997):
Entries after “also recorded” stand apart in the source; their conditions may differ. Peptide text beside a SMILES is read from it.

Assays:
[1] = system: anesthetized rats; experiment: Infusion studies: inhibition of amylin-induced changes in plasma glucose, lactate, calcium and blood pressure; assay type: in vivo; conditions: rat, i.v. 1.5 mg bolus then 3 mg/hr for 1.5 h; amylin 50 μg bolus + 50 μg/hour
Method: Briefly, these studies are performed on anesthetized rats as described in International Application Number PCT/US92/00185, "Amylin Activity Assays", published Jul. 22, 1992. At time -0.5 hours, test rats are infused with a 1.5 mg bolus of the antagonist being tested followed by antagonist infusion at 3 mg/hr for a further 1.5 hours. At time 0 hours, a 50 μg bolus of amylin is administered followed by amylin infusion at 50 μg/hr for the remainder of the experiment. In these tests, the capacity of the antagonist to block the hyperglycemic and hyperlactemic effects of amylin are indicated by the inhibition of amylin-evoked increases in plasma glucose and plasma lactate.
Amylin antagonists were evaluated in vivo for their ability to inhibit amylin-induced elevation of plasma glucose and plasma lactate and amylin-evoked depression of plasma calcium and blood pressure. Male Harlan Sprague Dawley rats (age 75-85 days, mass 300-350 g) fasted 18-20 hours were halothane anesthetized and cannulated via the saphenous vein for infusions/injections and via the femoral artery for sampling of glucose/lactate/calcium and for recording arterial pressure. One and a half hours after surgery they were infused with a 1.5 mg intravenous bolus of test antagonist, followed by an infusion of 3 mg/hour for a further 1.5 hours (t=-0.5→+1.0 hr). At t=0 hours (0.5 hours after the start of the primed/continuous antagonist infusion) a 50 μg intravenous bolus of rat amylin was administered followed by an infusion of 50 μg/hour which continued until the end of the experiment. Blood samples were collected every 10 minutes for the first 2 hours of the test (then less frequently),and mean arterial pressure was continuously recorded from t=-0.5→t=+0.5 hours. Control rats, not administered the test substance, were injected with either saline or with primed/continuous amylin at t=0 hours, as described above.

[2] = target: T1, CGRP receptors (Homo sapiens, UniProt O60894+Q16602); experiment: CGRP receptor binding assay (125I human αCGRP, SK-N-MC cell membranes); conditions: for IC50: 20 pM 125I human αCGRP; for selectivity for amylin receptors than CGRP receptors: ratio of CGRP receptor IC50 to amylin receptor IC50
T1 construct: SK-N-MC cells were homogenized in 50 mM HEPES buffer, pH 7.4, and membranes were collected by centrifugation; endogenous in cells; host or cells: human SK-N-MC neuroblastoma cells (membranes)
Description: (§1) As more fully described in Example 9, these assays, like the amylin receptor binding assay, are competition assays which measure the ability of compounds to bind specifically to certain membrane-bound receptors. Preferred sources of membrane preparations used in these assays are human SK-N-MC neuroblastoma cells and human T47D carcinoma cells to measure binding to CGRP and calcitonin receptors, respectively. Compounds being assayed compete for binding to the CGRP receptor preparations with ^125 I human αCGRP and to the calcitonin receptor preparations with ^125 I salmon calcitonin. Competition curves are analyzed as described for amylin receptor binding assays. The affinity of a compound for the amylin receptor relative to the affinity of the compound for the CGRP and calcitonin receptors determines the selectivity of the compound.
(§2) The selectivity of antagonist peptides for the amylin receptor relative to the CGRP and calcitonin receptors was determined by using two in vitro radioligand binding assays and comparing the results obtained to those acquired from the amylin receptor binding assay described in Example 7.
To measure the affinity of the peptides for CGRP receptors, human SK-N-MC neuroblastoma cells were used. […] Van Valen, Piechot & Jurgens, Neuroscience Letters 119:195-198 (1990). SK-N-MC cells were homogenized in 50 mM HEPES buffer, pH 7.4, and membranes were collected by centrifugation for 15 min at 48,000×g. Membranes were suspended at 0.1 to 0.2 mg protein/0.2 ml assay and were incubated in 50 mM HEPES, pH 7.4 containing BSA, bacitracin, and 2 mM MgCl2 with 20 pM ^125 I human αCGRP (labeled at ^10 his, 2000 Ci/mmol) and unlabeled peptide. Additional methods were similar to those described for amylin receptor binding assays in Example 2.

[3] = system: calcitonin receptors; experiment: Calcitonin receptor binding assay (125I salmon calcitonin, T47D cell membranes); design: species or system human; conditions: ratio of calcitonin receptor IC50 to amylin receptor IC50
Description: as §1, §2
(§3) To determine the affinity of the antagonist peptides for calcitonin receptors, human T47D carcinoma cells were used. […] Findlay et al., Cancer Research 40:4764-4767 (1980). Membranes were prepared from confluent cultures of T47D cells as described for SK-N-MC cells. Membranes were incubated with ^125 I salmon calcitonin (labeled at ^22 tyr, 2000 Ci/mmol) at a concentration of 30 pM for 60 minutes at ambient temperature. Additional methods were similar to those described for amylin receptor binding assays in Example 2. The IC50 of AAP40 (SEQ ID NO:40) for ^125 I salmon calcitonin binding to human T47D cell membranes was 50 nM.

[4] = target: T2, calcitonin receptors (Homo sapiens, UniProt P30988); experiment: as above; conditions: 30 pM 125I salmon calcitonin, 60 minutes, ambient temperature
T2 construct: Membranes were prepared from confluent cultures of T47D cells as described for SK-N-MC cells; endogenous in cells; host or cells: human T47D carcinoma cells (membranes)
T2 sequence (P30988 25-474): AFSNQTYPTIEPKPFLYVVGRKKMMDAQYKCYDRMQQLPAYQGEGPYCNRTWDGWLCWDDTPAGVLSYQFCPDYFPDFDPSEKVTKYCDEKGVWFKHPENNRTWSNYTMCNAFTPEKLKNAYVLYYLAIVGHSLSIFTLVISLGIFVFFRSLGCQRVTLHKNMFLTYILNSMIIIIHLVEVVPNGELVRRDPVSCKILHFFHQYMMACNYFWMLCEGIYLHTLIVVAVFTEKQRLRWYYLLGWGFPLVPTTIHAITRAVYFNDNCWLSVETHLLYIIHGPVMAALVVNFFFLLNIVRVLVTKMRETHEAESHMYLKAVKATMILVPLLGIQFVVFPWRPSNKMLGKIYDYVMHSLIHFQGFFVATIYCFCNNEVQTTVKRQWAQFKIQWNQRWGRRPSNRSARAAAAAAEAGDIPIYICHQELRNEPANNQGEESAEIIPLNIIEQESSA
Description: as §1, §2, §3

[5] = system: rat soleus muscle; experiment: Soleus muscle assay: antagonism of 100 nM rat amylin on insulin-stimulated glycogenesis; assay type: cell-based; conditions: read-out: IC50, antagonism of amylin effect on insulin-stimulation of glycogenesis in skeletal muscle
Method: Rat soleus muscle preparations have been in use for many years to study muscle glycogen metabolism and are well known in the field. The soleus muscle assay can be used to measure or test for amylin antagonist activity in vitro. Assays of biological activity of amylin or amylin antagonist preparations in the soleus muscle are performed using previously described methods (e.g., Young, A. A. et al., Am. J. Physiol. 263:E274-281 (1992)).
In summary, while amylin or amylin agonist activity is assessed by measuring the incorporation of radiolabelled glucose into glycogen in soleus muscle in response to an amylin or other amylin agonist, amylin antagonist activity is assessed by measuring the reversal of this inhibition in the presence of 100 nM rat amylin and an amylin antagonist. Concentrations of peptide dissolved in carrier-free buffers are determined by quantitative amino acid analysis, as described herein. The ability of compounds to act as antagonists in this assay can also be evaluated by measuring IC50 values. Standard errors are determined by fitting of sigmoidal dose response curves using a four parameter logistic equation (De Lean, A., Munson, P. J., Guardabasso, V. and Rodbard, D. (1988) ALLFIT, Version 2.7, National Institute of Child Health and Human Development, N.I.H. Bethesda, Md., 1 diskette).
These assays involving the stimulation by insulin of glycogen synthesis in rat soleus muscle in vitro were performed as described by Young, A. A. et al., Am. J. Physiol. 263:E274-281 (1992). Rat amylin inhibited the insulin-stimulated incorporation of radiolabelled glucose into glycogen.
The effects of the peptide in the rat soleus muscle glycogenesis system were measured according to the following method. Insulin-stimulated radioglucose incorporation was measured as described above in the presence of 100 nM rat amylin to maximally suppress incorporation. Increasing concentrations of AAP30 (SEQ ID NO:30), AAP37 (SEQ ID NO:37) and AAP40 (SEQ ID NO:40) were added to test their antagonism of amylin, i.e., to increase radioglucose incorporation under these conditions.

[6] = system: anesthetized rats; experiment: Renin studies: inhibition of amylin-induced plasma renin activity; assay type: in vivo; conditions: rat, i.v. 0.5 mg then 1.0 mg/hour; amylin 10 μg subcutaneous bolus
Method: The amylin antagonist AAP40 (SEQ ID NO:40) was evaluated in vivo for its ability to inhibit amylin-induced plasma renin activity. Male Harlan Sprague Dawley (age 77-82 days, mass 300-350 g) fasted 18-20 hours were halothane anesthetized and cannulated as described in Example 10. One and a half hours after surgery, one treatment group of 7 rats was administered amylin as a 10 μg subcutaneous bolus (t=0). Another treatment group of 6 rats was similarly treated except that they were also administered AAP40 (SEQ ID NO:40) (1 mg/mL) as a primed continuous intravenous infusion of 0.5 mg, then 1.0 mg/hour for a further 1.5 hours (t=-10 min to t=+120 min). Blood samples were collected at t=-30, 0, 30, 60 and 120 min for assessment of plasma renin activity using the INCStar GammaCoat [^125 I] plasma renin activity RIA kit (INCStar, Stillwater, Minn.; Cat. No. CA-533-553). Control rats, not administered AAP40 (SEQ ID NO:40), were injected with either saline or with primed/continuous amylin at t=0 hours, as described above.

T1 sequence (Q16602 23-461): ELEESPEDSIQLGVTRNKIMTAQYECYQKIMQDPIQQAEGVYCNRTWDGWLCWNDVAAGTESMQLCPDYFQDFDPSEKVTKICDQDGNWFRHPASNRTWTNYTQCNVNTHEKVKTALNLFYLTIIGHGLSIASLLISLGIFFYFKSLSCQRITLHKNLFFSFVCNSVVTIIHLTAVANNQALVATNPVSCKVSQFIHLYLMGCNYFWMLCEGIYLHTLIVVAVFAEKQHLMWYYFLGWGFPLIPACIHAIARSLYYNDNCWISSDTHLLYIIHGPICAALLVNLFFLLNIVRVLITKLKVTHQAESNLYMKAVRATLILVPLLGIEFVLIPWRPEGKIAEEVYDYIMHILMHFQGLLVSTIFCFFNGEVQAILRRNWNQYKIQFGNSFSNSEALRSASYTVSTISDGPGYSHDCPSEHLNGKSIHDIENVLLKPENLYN
T1 sequence (O60894 27-148): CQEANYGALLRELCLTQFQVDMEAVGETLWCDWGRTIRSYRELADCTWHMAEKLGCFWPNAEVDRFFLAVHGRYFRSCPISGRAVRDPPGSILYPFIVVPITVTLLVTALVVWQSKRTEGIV

| IC50 [2] | selectivity for amylin receptors than CGRP receptors [2] | IC50 [4] | IC50 [5] | SMILES | effect on amylin-induced decrease in blood pressure (hypotension) [1] | effect on amylin-induced decrease in plasma calcium (hypocalcemia) [1] | effect on amylin-induced increase in plasma glucose (hyperglycemia) [1] | effect on amylin-induced increase in plasma lactate (hyperlactemia) [1] | selectivity for amylin receptors than calcitonin receptors [3] | effect on amylin-induced plasma renin activity [6] |
| --- | --- | --- | --- | --- | --- | --- | --- | --- | --- | --- |
| 69 nM | 43 fold | 36 nM | 1130 nM | CC(=O)N[C@@H](C)C(=O)N[C@H](C(=O)N[C@@H](CCC(N)=O)C(=O)N[C@@H](CC(C)C)C(=O)N[C@@H](CC(C)C)C(=O)N[C@@H](C)C(=O)N[C@@H](CC(N)=O)C(=O)N[C@@H](CCC(N)=O)C(=O)N[C@@H](CC(C)C)C(=O)N[C@H](C(=O)N[C@@H](CCCNC(=N)N)C(=O)N[C@@H](CC(C)C)C(=O)N[C@@H](CCC(N)=O)C(=O)N[C@H](C(=O)N[C@@H](Cc1ccc(O)cc1)C(=O)N1CCC[C@H]1C(=O)N[C@@H](CCCNC(=N)N)C(=O)N[C@H](C(=O)N[C@@H](CC(N)=O)C(=O)N[C@H](C(=O)NCC(=O)N[C@@H](CO)C(=O)N[C@@H](CC(N)=O)C(=O)N[C@H](C(=O)N[C@@H](Cc1ccc(O)cc1)C(N)=O)[C@@H](C)O)C(C)C)[C@@H](C)O)[C@@H](C)O)C(C)C)[C@@H](C)O [AAP30] (Ac-ATQLLANQLVRLQTYPRTNVGSNTY-NH2; N-terminus assumed) | did not inhibit amylin-induced decreases in blood pressure | did not inhibit | suppressed; also recorded: prevent | suppressed; also recorded: prevent | 22 fold | – |
| 2.6 nM | 12 fold | 160 nM | 4590 nM | CC(=O)N[C@@H](C)C(=O)N[C@H](C(=O)N[C@@H](CCC(N)=O)C(=O)N[C@@H](CCCNC(=N)N)C(=O)N[C@@H](CC(C)C)C(=O)N[C@@H](C)C(=O)N[C@@H](CC(N)=O)C(=O)N[C@@H](CCC(N)=O)C(=O)N[C@@H](CC(C)C)C(=O)N[C@H](C(=O)N[C@@H](CCCNC(=N)N)C(=O)N[C@@H](CC(C)C)C(=O)N[C@@H](CCC(N)=O)C(=O)N[C@H](C(=O)N[C@@H](Cc1ccc(O)cc1)C(=O)N1CCC[C@H]1C(=O)N[C@@H](CCCNC(=N)N)C(=O)N[C@H](C(=O)N[C@@H](CC(N)=O)C(=O)N[C@H](C(=O)NCC(=O)N[C@@H](CO)C(=O)N[C@@H](CC(N)=O)C(=O)N[C@H](C(=O)N[C@@H](Cc1ccc(O)cc1)C(N)=O)[C@@H](C)O)C(C)C)[C@@H](C)O)[C@@H](C)O)C(C)C)[C@@H](C)O [AAP37] (Ac-ATQRLANQLVRLQTYPRTNVGSNTY-NH2) | did block this effect | did not inhibit | suppressed; also recorded: prevent | suppressed; also recorded: prevent | 762 fold | – |
| 33 nM | 66 fold | 50 nM | 136 nM | CC(=O)N[C@@H](C)C(=O)N[C@H](C(=O)N[C@@H](CCC(N)=O)C(=O)N[C@@H](CCCNC(=N)N)C(=O)N[C@@H](CC(C)C)C(=O)N[C@@H](C)C(=O)N[C@@H](CC(N)=O)C(=O)N[C@@H](CCC(=O)O)C(=O)N[C@@H](CC(C)C)C(=O)N[C@H](C(=O)N[C@@H](CCCNC(=N)N)C(=O)N[C@@H](CC(C)C)C(=O)N[C@@H](CCC(N)=O)C(=O)N[C@H](C(=O)N[C@@H](Cc1ccc(O)cc1)C(=O)N1CCC[C@H]1C(=O)N[C@@H](CCCNC(=N)N)C(=O)N[C@H](C(=O)N[C@@H](CC(N)=O)C(=O)N[C@H](C(=O)NCC(=O)N[C@@H](CO)C(=O)N[C@@H](CC(N)=O)C(=O)N[C@H](C(=O)N[C@@H](Cc1ccc(O)cc1)C(N)=O)[C@@H](C)O)C(C)C)[C@@H](C)O)[C@@H](C)O)C(C)C)[C@@H](C)O [AAP40] (Ac-ATQRLANELVRLQTYPRTNVGSNTY-NH2) | did not inhibit | did not inhibit | suppressed; also recorded: prevent | suppressed; also recorded: prevent | 100 fold | effectively inhibits |
